Molecular target: T1, hMR (Homo sapiens, UniProt P08235)
T1 sequence (P08235 1-984): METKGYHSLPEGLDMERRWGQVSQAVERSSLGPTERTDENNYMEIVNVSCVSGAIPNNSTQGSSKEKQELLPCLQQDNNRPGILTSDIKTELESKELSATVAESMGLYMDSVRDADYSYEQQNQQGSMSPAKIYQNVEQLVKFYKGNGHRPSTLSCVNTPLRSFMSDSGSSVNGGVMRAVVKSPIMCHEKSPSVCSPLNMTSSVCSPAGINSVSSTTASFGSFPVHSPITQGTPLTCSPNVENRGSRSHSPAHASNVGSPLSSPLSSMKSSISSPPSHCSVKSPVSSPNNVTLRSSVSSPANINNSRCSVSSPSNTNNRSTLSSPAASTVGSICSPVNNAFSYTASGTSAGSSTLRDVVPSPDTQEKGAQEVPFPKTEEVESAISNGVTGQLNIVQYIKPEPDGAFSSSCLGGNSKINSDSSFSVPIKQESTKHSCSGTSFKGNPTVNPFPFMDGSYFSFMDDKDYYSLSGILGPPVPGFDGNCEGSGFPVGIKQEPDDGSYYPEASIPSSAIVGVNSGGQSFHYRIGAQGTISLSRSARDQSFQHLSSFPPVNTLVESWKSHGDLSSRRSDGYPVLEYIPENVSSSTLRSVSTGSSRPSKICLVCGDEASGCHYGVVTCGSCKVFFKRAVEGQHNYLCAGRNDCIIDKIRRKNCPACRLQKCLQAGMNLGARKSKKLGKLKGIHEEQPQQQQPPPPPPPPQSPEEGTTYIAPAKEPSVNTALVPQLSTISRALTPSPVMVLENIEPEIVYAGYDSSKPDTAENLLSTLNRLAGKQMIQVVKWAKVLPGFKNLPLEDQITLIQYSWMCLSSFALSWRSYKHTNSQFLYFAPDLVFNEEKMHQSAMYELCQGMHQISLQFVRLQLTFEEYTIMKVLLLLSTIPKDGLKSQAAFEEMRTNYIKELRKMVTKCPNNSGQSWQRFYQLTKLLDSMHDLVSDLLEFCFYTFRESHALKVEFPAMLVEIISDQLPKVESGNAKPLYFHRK
Test: [^3H]aldosterone binding and steroid competition in extracts of pRShMR-transfected COS cells
Design: expressed in transfected cells; host or cells: COS cells transfected with pRShMR (DEAE-dextran)
Conditions: 1-, 10-, or 100-fold molar excess of unlabeled steroid
Procedure: Ligand specificity of the hMR protein was determined by preparing cytosol extracts from COS cells transfected with pRShMR. Two days after transfection, cells were harvested, and hormone binding was measured by a dextran-treated charcoal assay. […] This provided a measure of the relative affinity of each of these steroids for hMR.
Steroid-binding properties of expressed hMR. FIG. 38 Structure of pRShMR, the hMR expression plasmid (41). […] Each point was assayed in triplicate with 100 micrograms of extract protein in a 200-microliter incubation at 0° C. for 2.5 hours. […] The results of two independent trials representative of these competition experiments are shown. Cold competitor was present in 1-, 10-, or 100-fold molar excess. […] Subconfluent COS cells were transfected by the DEAE-dextran method (42) with 10 micrograms of pRShMR per dish. Cells were maintained for 2 days in DMEM (Dulbecco's modification of Eagle's minimum essential medium) with 5 percent charcoal-treated fetal calf serum, then harvested in […] tris-HCl. (pH 7.8), 10 nM NaCl, 1 mM EDTA, 10 mM Na2MoO4, 5 mM dithiothreitol, antipain (5 microgram/ml), leupeptin (5 microgram/ml), and 500 microM phenylmethylsulfonyl fluoride. After centrifugation at 15,000×g for 10 minutes, extracts were adjusted to 100 mM NaCl and 5 percent glycerol before binding. […] After centrifugation at 15,000×g for 2 minutes at 40C, tritium in supernatant was quantified by liquid scintillation spectrophotometry.

In the case of `C[C@]12CC[C@@H]3c4ccc(O)cc4CC[C@H]3[C@@H]1CC[C@@H]2O` [oestradiol], the “relative affinity for hMR by competition with 5 nM [^3H]aldosterone (in words)” value is reported as “competed very poorly”.
